Laboratory results: PubChem BioAssay (NCI)
Several values for one entry are separate records, joined by “and”; a condition that tells them apart may be missing. Equal entries are not always repeated.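 Results reflect a 48-hour exposure of cells in 96-well plates to compound at five concentrations. Here, GI50 denotes the concentration required for 50% inhibition of growth. Definition used: TGI = concentration required for complete inhibition of growth.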

Assays:
Assay in all cases: growth of human tumour cells (NCI), 48 h
T-47D breast = test system: T-47D breast
NCI-H460 lung = test system: NCI-H460 lung
HCC-2998 colon = test system: HCC-2998 colon
A549 NSCLC = test system: A549 NSCLC
NCI/ADR-RES ovarian = test system: NCI/ADR-RES ovarian
786-0 renal = test system: 786-0 renal
KM12 colon = test system: KM12 colon
SF-295 CNS = test system: SF-295 CNS
SK-MEL-5 melanoma = test system: SK-MEL-5 melanoma
SW-620 colon = test system: SW-620 colon

Row | SMILES | GI50 (T-47D breast) | TGI (T-47D breast) | GI50 (NCI-H460 lung) | TGI (NCI-H460 lung) | GI50 (HCC-2998 colon) [µM] | TGI (HCC-2998 colon) [µM] | GI50 (A549 NSCLC) | TGI (A549 NSCLC) | GI50 (NCI/ADR-RES ovarian) | TGI (NCI/ADR-RES ovarian) | GI50 (786-0 renal) | TGI (786-0 renal) | GI50 (KM12 colon) | TGI (KM12 colon) | GI50 (SF-295 CNS) | TGI (SF-295 CNS) | GI50 (SK-MEL-5 melanoma) | TGI (SK-MEL-5 melanoma) | GI50 (SW-620 colon) | TGI (SW-620 colon)
1 | N#CSc1c[nH]c2cccc(/C=C/C(=O)/C=C(O)/C=C/c3cccc4[nH]cc(SC#N)c34)c12 | 0.173 µM | 2.27 µM | 0.228 µM | 0.899 µM | 1.2 | 4.56 | 0.353 µM | 2.78 µM | 2.72 µM | > 33.3 µM | 0.684 µM | 2.14 µM | 0.351 µM | 0.998 µM | 0.746 µM | 2.29 µM | 0.467 µM | 0.982 µM | 0.151 µM | 0.555 µM
2 | COC(=O)[C@@H](C)C[C@H](Cc1ccccc1)NC(=O)c1nc([C@@H](C[C@H](C(C)C)N(C)C(=O)[C@@H](NC(=O)[C@H]2CC(=O)CCN2C)C(C)C)OC(C)=O)sc1C(C)C | 0.08 µM | > 16.7 µM | 0.27 µM | > 5.85 µM | 0.141 | > 16 | 0.775 µM | > 16.7 µM | 4.11 µM | > 16.7 µM | 0.347 µM | 8.82 µM | 0.132 µM | > 6.76 µM | 0.277 µM | 3.02 µM | 0.0869 µM | 1.76 µM | 0.141 µM | > 16.7 µM
3 | CC(=O)O[C@@H]1[C@H]2O[C@H]2[C@H]2O[C@@]2(COC(=O)c2ccccc2)[C@H]1OC(C)=O |  | > 100 µM |  | > 100 µM |  | > 100 |  | > 100 µM |  | > 100 µM |  | > 100 µM |  | > 100 µM |  | > 100 µM |  | > 100 µM |  | > 100 µM
4 | Nc1nc(-c2ccccn2)c(-c2ccc3ncccc3n2)s1 | > 25 µM | > 25 µM | > 25 µM | > 25 µM | > 25 | > 25 | > 25 µM | > 25 µM | > 25 µM | > 25 µM | > 25 µM | > 25 µM | > 25 µM | > 25 µM | > 25 µM | > 25 µM | > 25 µM | > 25 µM | > 25 µM | > 25 µM
5 | Nc1c2ccccc2nc2ccccc12 | 1.62 µM and 2.99 µM | 6.38 µM and 7.61 µM | 1.44 µM and 2.5 µM | 5.17 µM and 6.88 µM | 1.81 | 3.93 | 1.52 µM and 2.87 µM | 3.94 µM and 8.81 µM | 1.44 µM and 1.48 µM | 5.35 µM and 6.21 µM | 2.61 µM and 3.64 µM | 11.4 µM and 14.7 µM | 2.04 µM and 3.27 µM | 7.58 µM and 14 µM | 1.61 µM and 3.08 µM | 9.52 µM and 17.5 µM | 1.62 µM and 2.12 µM | 2.99 µM and 4.46 µM | 1.06 µM and 3.06 µM | 5.95 µM and 22.6 µM
6 | CCn1nc(C#Cc2c(C)ccc3c(Nc4ccc(Cl)cc4)nccc23)c2c(N)ncnc21 | 5.48 µM | > 100 µM | 4.22 µM | > 100 µM | 7.57 | > 100 | 4.58 µM | > 100 µM | 3.1 µM | 10.7 µM | 3.66 µM | > 100 µM | 3.79 µM | > 100 µM | 2.48 µM | 11.6 µM | 2.14 µM | 6.55 µM | 2.99 µM | > 100 µM
7 | OC1(c2ccccc2)c2ccccc2N(c2ccccc2)c2ccc(Cl)cc21 (configuration not stated) | 0.103 µM | 0.282 µM | 0.246 µM | 0.568 µM | 0.258 | 0.795 | 0.332 µM | 1.3 µM | 1.55 µM | 6.23 µM | 0.253 µM | 0.68 µM | 0.296 µM | 0.845 µM | 0.575 µM | 2.27 µM | 0.186 µM | 0.432 µM | 0.197 µM | 0.491 µM
8 | O=C(c1ccco1)c1c(C(F)(F)F)n([O-])c2cc(Cl)c(Cl)cc2[n+]1=O | 7.03 µM | 15.3 µM | 0.121 µM | 0.361 µM | 0.606 | 1.26 | 1.04 µM | 2.55 µM | 0.845 µM | 1.78 µM | 0.241 µM | 0.456 µM | 0.186 µM | 0.75 µM | 0.247 µM | 0.825 µM | 0.727 µM | 1.45 µM | 0.873 µM | 2.48 µM
9 | CCCCCCCCCCCCNC(=O)N[C@H](C(=O)N[C@H]1/C=C/OCCNC(=O)/C=C/[C@H](C(C)C)NC1=O)C(C)C | 3.14 µM | > 100 µM | 6.16 µM | 61.3 µM | 12.9 | > 60.1 | 32.3 µM | > 100 µM | > 100 µM | > 100 µM | 40.1 µM | > 100 µM | 4.72 µM | 30 µM | 21.4 µM | > 100 µM | 2.03 µM | 14.8 µM |  | 
10 | Fc1cnccc1-c1nc2ccc3[nH]ncc3c2c2c1CCCC2 | 1.51 µM | 9.01 µM | 1.41 µM | 7.74 µM | 3.2 | > 100 | 1.25 µM | > 100 µM | 2.41 µM | > 100 µM | 1.67 µM | 5.23 µM | 0.605 µM | > 100 µM | 2.53 µM | > 100 µM | 2.35 µM | > 100 µM |  | 
11 | CC1(C)N=C(N)N=C(N)N1c1cccc(CC(=O)Nc2ccccc2)c1 | > 100 µM | > 100 µM | 3.63 µM | > 100 µM | 24 | > 100 | 3.54 µM | > 100 µM | > 100 µM | > 100 µM | 78.5 µM | > 100 µM | 15.1 µM | > 100 µM | 30.6 µM | > 100 µM | 4.44 µM | > 100 µM | 4.56 µM | > 100 µM
12 | CC(C)CC(=O)O[C@H]1C(=O)O[C@@H]2C[C@H]3[C@H](C)C(=O)C(O[C@@H]4O[C@H](CO)[C@@H](O)[C@H](O)[C@H]4O)=C[C@]3(C)[C@H]3[C@@H](O)[C@H](O)[C@]4(C(=O)O)OC[C@]32[C@@H]14 |  | > 100 µM | 27.5 µM | > 100 µM | 20.6 | 54.4 | 42.1 µM | > 100 µM | > 100 µM | > 100 µM | > 100 µM | > 100 µM |  | > 100 µM |  |  | 28.4 µM | > 100 µM | > 100 µM | > 100 µM
